Data set [1] in a line: UV/vis absorbance spectroscopy in DMSO, water and 1 M HCl (stacking, aqueous solubility). It is filed as physicochemical. The note with it: absorption spectra in water vs DMSO and 1 M HCl. As to the method: UV/vis absorbance spectroscopy in DMSO, water and 1 M HCl. For each of the porphyrins 5, 6, and 7, 5 mg, was dissolved in 30 µL of 1 M NaOH H this was diluted to 5 mL with distilled to give stock solutions of concentrations 0.926 mM, 0.88 mM and 0.77 mM, respectively. In a quartz 96 well plate, 20 µL was added to a well and diluted to a volume of 320 µL with either DMSO, water or 1 M HCl.

A short description of data set [2]: WST-8 cell viability assay after PDT, Met-5a. It is filed as cell-based. Conditions: human, Met-5a cells, light, read-out: cell viability relative to untreated control. As to the method: (§1) Porphyrin PS stock solutions 4, 5, and 6 (Scheme 1) were prepared by dissolving a 5 mg aliquot in 500 μL of 1 M NaOH. This was added to 9.5 mL of complete media to prepare a 500 μg/mL stock solution. Stock solutions were filter sterilized using a Millipore PES membrane filter (Merck, Watford, UK). Working solutions were prepared immediately before PDT experiments and consisted of six treatments: an untreated control, vehicle control, and four porphyrin concentrations (5, 10, 15, and 20 μg/mL).
(§2) Cells were detached using a trypsin/EDTA solution (Lonza). Trypan blue (0.4% v/v) exclusion was used to count viable cells before seeded into 96-well plates (Nunc) at a density of 5 × 10^3 cells per well in 200 μL of complete RPMI. Cell culture plates were seeded approximately 24 h before PDT. Media was aspirated and replaced with equal volumes of the respective PS treatment. For the purpose of background subtraction, PS treatments were also added to wells without cells. Following 3 h of incubation (37 °C, 5% CO2:95% air), plates were irradiated for 15 min on a 15 W light box (UVP, Cambridge, UK). Experiments performed parallel to dark-treated control plates.
Cell viability was assessed by the colorimetric WST-8 assay. Following 24 h of incubation (37 °C, 5% CO2:95% air), 10 μL of WST-8 was added to each cell-containing well of the 96-well plates. The plates were incubated for 3 h (37 °C, 5% CO2:95% air) and then analyzed at 450 nm using a Clariostar Plate Reader (BMG Labtech, Ortenberg, Germany). Corrected absorbance was calculated in each case by subtraction of the media only controls. Finally, percentage cell viability was expressed relative to untreated control values.
In general terms: Tetrazolium dyes change colour on reduction, which living cells bring about.

Data set [3] has as its system NCI-H28 cells. Briefly: Annexin V-FITC/PI cell death analysis by flow cytometry, NCI-H28. Format: cell-based, human. The note with it: light; for EC50: read-out: EC50 (50% reduction in viable cell populations), PDT activity. As to the method: (§3) Cells were harvested in accordance with methods previously described and seeded into 24-well plates (Nunc, London, UK) at a density of 2 × 10^5 cells per well in 1000 μL of complete RPMI; the culture plates were seeded approximately 24 h before PDT. Cell treatment and irradiation was performed in accordance with methods previously described.
(§4) Annexin V-FITC/PI staining and cell death analysis was performed at both 24- and 48 h time points following PDT (representative flow cytometry dot-plots from Annexin V-FITC/PI-stained cells in Supplementary Materials-Figure S2). Non-adherent cells were harvested through the removal of culture medium and adherent monolayers were trypsinized and returned to the removed media. Harvested cells were removed from media via centrifugation (5 min, 400× g) (VWR Mega Star, Leicestershire, UK) and resuspended in Annexin V Binding Buffer. Following a second centrifugation, Annexin V Binding Buffer was discarded, and cell pellets were resuspended in the residual volume. Cells were stained with Annexin V-FITC (5 μL) and PI (10 μL) and incubated at room temperature for 15 min protected from light. 200 µL of Annexin V Binding Buffer was added prior to immediate analysis using a BD FACSCalibur (BD Biosciences, Wokingham, UK) and data from 10,000 events was collected. Flow cytometry results were analyzed using FlowJo™ v10.8 Software (BD Life Sciences). Quadrants consisted of Viable (Annexin V-FITC^−/PI^−), early stage apoptotic (Annexin V-FITC^+/PI^−) and late-stage apoptotic/necrotic (Annexin V-FITC^+/PI^+) populations.

Experiment in data set [4]: as above
Format: cell-based, human. Conditions: human, NCI-H28 cells, read-out: viable cells. As to the method: as §3, §4

For data set [5], the system named is NCI-H28 cells. Briefly: WST-8 cell viability assay after PDT, NCI-H28. Conditions: Homo sapiens; NCI-H28, 5 μg/mL, light, 48 h; read-out: cell viability relative to untreated control. It is filed as cell-based, human. As to the method:
as §1
as §2, with “Experiments performed parallel to dark-treated control plates.” left out
(§5) Cell viability was assessed by the colorimetric WST-8 assay. […] The plates were incubated for 3 h (37 °C, 5% CO2:95% air) and then analyzed at 450 nm using a Clariostar Plate Reader (BMG Labtech, Ortenberg, Germany). Corrected absorbance was calculated in each case by subtraction of the media only controls. […]

Data set [6] can be described thus: WST-8 cell viability assay after PDT, NCI-H28. It is filed as cell-based, human. The note with it: human, NCI-H28 cells, NCI-H28, 5 μg/mL, dark, read-out: cell viability relative to untreated control. As to the method: as §1
as §2, with “Experiments performed parallel to dark-treated control plates.” left out
as §5

Data set [7] relates to Met-5a cells. Briefly: Annexin V-FITC/PI cell death analysis by flow cytometry, Met-5a. Format: cell-based, human. The note with it: for EC50: Homo sapiens, read-out: EC50 (50% reduction in viable cell populations), PDT activity. As to the method: as §3, §4
For orientation: Flow cytometry measures light scatter and fluorescence of single cells or particles in a stream.

Data set [8] relates to MSTO-211H cells. The data set can be described thus: WST-8 cell viability assay after PDT, MSTO-211H. Format: cell-based, human. Conditions: Homo sapiens, 5 μg/mL, light, 48 h, read-out: cell viability relative to untreated control. As to the method: as §1, §2
(§6) Cell viability was assessed by the colorimetric WST-8 assay. […] The plates were incubated for 3 h (37 °C, 5% CO2:95% air) and then analyzed at 450 nm using a Clariostar Plate Reader (BMG Labtech, Ortenberg, Germany). Corrected absorbance was calculated in each case by subtraction of the media only controls. Finally, percentage cell viability was expressed relative to untreated control values.

Data set [9] is described as follows: WST-8 cell viability assay after PDT, MSTO-211H. The note with it: human, MSTO-211H cells, dark; for viability at 48 h, 5 μg/mL: read-out: cell viability relative to untreated control. Format: cell-based, human. As to the method: as §1, §2, §6
For data set [10], the system named is MSTO-211H cells. Briefly: Annexin V-FITC/PI cell death analysis by flow cytometry, MSTO-211H. Format: cell-based, human. The note with it: light; for EC50: read-out: EC50 (50% reduction in viable cell populations), PDT activity. As to the method:
as §3, §4

Experiment in data set [11]: as above
Format: cell-based, human. The note with it: human, MSTO-211H cells, dark, 48 h, read-out: viable cells. As to the method: as §3, §4

The subject of data set [12] is MSTO-211H cells. Briefly: Cellular localization by high content fluorescence microscopy. Format: cell-based, human. Conditions: 24 h incubation. As to the method:
Cells were harvested in accordance with methods previously described and seeded into 24-well plates (Nunc, London, UK) at a density of 25,000 treated with porphyrin working solutions made up from the porphyrin PS stock solutions and incubated for 24 h. The cells were visualized using a Cytation 5 (Agilent Technologies, Cheadle, UK) high content microscopy platform at 20× magnification.

Setting [13] is: Homo sapiens, NCI-H28, 24 h, NCI-H28, 24 h time point.
Where [14] appears, read: Homo sapiens, NCI-H28, 48 h, NCI-H28, 48 h time point.
Where [15] appears, read: Homo sapiens, 24 h, 24 h time point.
Setting [16] is: Homo sapiens, 48 h, 48 h time point.
Setting [17] is: 20 μg/mL, time point not stated.

≈ marks a conversion by molar mass, not a printed value. Like-named read-outs stand apart in the source and are kept apart here. Marks after values point to notes of the source that are not given here.

Experimental findings from paper PMC9654571, “Water-Soluble Truncated Fatty Acid–Porphyrin Conjugates Provide Photo-Sensitizer Activity for Photodynamic Therapy in Malignant Mesothelioma” (Cancers, 2022) are described below.

`O=C(O)CCCCOc1cccc(-c2c3nc(c(-c4cccc(OCCCCC(=O)O)c4)c4ccc([nH]4)c(-c4cccc(OCCCCC(=O)O)c4)c4nc(c(-c5cccc(OCCCCC(=O)O)c5)c5ccc2[nH]5)C=C4)C=C3)c1` [C5SHU]: the “stacking in aqueous solutions” value in [1] is recorded as “least evidence of stacking”. Further, the viability at 24 h, 5 μg/mL in data set [2] is ~28%. In addition, the viability at 48 h, 5 μg/mL was ~11% in [2], 116% in [6] and 100% in [9]. Further, the EC50 was 7.8 µg/mL (≈ 7.23 µM) in [3] (setting [13]); 6 ± 1 µg/mL (≈ 5.56 µM) in [3] (setting [14]); > 20 µg/mL in data set [7] (24 h time point, light); 5.1 ± 1 µg/mL (≈ 4.73 µM) in data set [7] (48 h time point, light); 7.7 µg/mL (≈ 7.13 µM) in data set [10] (setting [15]); 2.8 ± 1.5 µg/mL (≈ 2.59 µM) in data set [10] (setting [16]). Moreover, the apoptotic cell population is 16% in data set [3] (NCI-H28, 10 μg/mL, 24 h) and 49% in [10] (10 μg/mL, 24 h). For the same compound, the necrotic cell population was 53% in [3] (NCI-H28, 10 μg/mL, 24 h) and 34% in data set [10] (10 μg/mL, 24 h). Further, the “EC50 (50% reduction in viable cell populations), PDT activity” value in data set [3] (NCI-H28, 24 h time point) was found to be 7.7 ± 1 µg/mL (≈ 7.13 µM); in [10] (24 h time point), 7.8 ± 3 µg/mL (≈ 7.23 µM). In addition, the viability in data set [4] (NCI-H28, dark, unchanged with porphyrin dose) was ~95%. For the same compound, the viability at 5 µg/mL in data set [5] came to 16%; in data set [8] it was 22%. In addition, in data set [7] (24 h, all dose concentrations), the cell death entry is listed as “no significant cell death”. The dark toxicity entry in [7] (24 h, all dose concentrations) was “negligible dark toxicity”; in [7] (48 h), “Negligible dark toxicity”. In data set [7] (48 h, light), the “predominant mode of cell death” value is “necrosis”. In addition, the viability at 48 h, 15 μg/mL in data set [9] (15 μg/mL, read-out: dark toxicity (cell viability)) was 30%; in [11] (15 μg/mL), 63.6%. The viability at 48 h, 20 μg/mL in [9] (20 μg/mL, read-out: dark toxicity (cell viability)) was 26%; in data set [11] (20 μg/mL), 46.1%.

On to `O=C(O)CCCCCOc1cccc(-c2c3nc(c(-c4cccc(OCCCCCC(=O)O)c4)c4ccc([nH]4)c(-c4cccc(OCCCCCC(=O)O)c4)c4nc(c(-c5cccc(OCCCCCC(=O)O)c5)c5ccc2[nH]5)C=C4)C=C3)c1` [C6SHU], for which the EC50 in data set [3] (setting [13]) is > 20 µg/mL; in data set [3] (setting [14]), > 20 µg/mL; in data set [7] (24 h time point, light) it was > 20 µg/mL; in data set [7] (48 h time point, light), > 20 µg/mL; in data set [10] (setting [15]), 14 µg/mL (≈ 12.3 µM); in [10] (setting [16]) it was 14 ± 4 µg/mL (≈ 12.3 µM). For the same compound, the IC50 in [3] (Homo sapiens, NCI-H28, NCI-28 as printed, time point not stated, read-out: IC50, PDT effect) was > 20 µg/mL. In addition, the viability at 20 µg/mL in data set [3] (Homo sapiens, NCI-H28, 20 μg/mL, time point not stated, read-out: viable cells) was 59%; in [10] (Homo sapiens, 20 μg/mL, time point not stated, read-out: viable cell population), 20%. In data set [8], the viability at 5 µg/mL came to 38%. In addition, the viability at 48 h, 5 μg/mL in data set [9] turned out to be 119%. Also, the apoptotic cell population in [10] (setting [17]) is 23%. This compound registered a necrotic cell population in [10] (setting [17]) of 50%.

As to `O=C(O)CCCCCCOc1cccc(-c2c3nc(c(-c4cccc(OCCCCCCC(=O)O)c4)c4ccc([nH]4)c(-c4cccc(OCCCCCCC(=O)O)c4)c4nc(c(-c5cccc(OCCCCCCC(=O)O)c5)c5ccc2[nH]5)C=C4)C=C3)c1` [C7SHU], the viability at 24 h, 5 μg/mL in data set [2] stood at 66%. The viability at 48 h, 5 μg/mL in data set [2] was 30%. Besides, the cellular localization entry in data set [12] is recorded as “localize in the cytosolic region”. Also, the EC50 in data set [3] (setting [13]) is > 20 µg/mL; in data set [3] (setting [14]), > 20 µg/mL; in [7] (24 h time point, light), > 20 µg/mL; in data set [7] (48 h time point, light), > 20 µg/mL; in data set [10] (setting [15]), 9.6 ± 3 µg/mL (≈ 8.06 µM); in data set [10] (setting [16]) it was 7.7 ± 2 µg/mL (≈ 6.46 µM). Also, the “EC50 (50% reduction in viable cell populations), PDT activity” value in [3] (NCI-H28, 24 h time point) is on record as >20 ^a μg/mL. Also, in [4] (NCI-H28, 10 μg/mL, 48 h), the viability at 48 h, 10 μg/mL is 75%.
